Reference: the supplement of paper PMC10307832

Legend:
Assay in all cases: relative viability (nuclei count vs DMSO), 5 days (fraction); higher = more cells survive
NCI-H1734 = tested on: NCI-H1734
Procedure, shortened: (§1)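 Values are medians from duplicate plates. Each reflects relative viability, defined as the nuclei count of treated wells over that of vehicle wells. Lung cancer cell lines in 1536-well plates were pin-tool dosed one day after seeding with one drug alone or with a fixed anchor-drug dose plus five library-drug doses (not always all listed) in √10 steps, then fixed, stained and imaged at 4× after 5 days.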

NCI-H520 = tested on: NCI-H520
Procedure, shortened: as §1

PC-3 [JPC-3] = tested on: PC-3 [JPC-3]
Procedure, shortened: as §1

HCC-827 = tested on: HCC-827
Procedure, shortened: as §1

NCI-H661 = tested on: NCI-H661
Procedure, shortened: as §1

NCI-H1355 = tested on: NCI-H1355
Procedure, shortened: as §1

NCI-H1650 = tested on: NCI-H1650
Procedure, shortened: as §1

RERF-LC-KJ = tested on: RERF-LC-KJ
Procedure, shortened: as §1

COR-L23 = tested on: COR-L23
Procedure, shortened: as §1

LK-2 = tested on: LK-2
Procedure, shortened: as §1

EKVX = tested on: EKVX
Procedure, shortened: as §1

H3255 = tested on: H3255
Procedure, shortened: as §1

ABC-1 = tested on: ABC-1
Procedure, shortened: as §1

NCI-H2228 = tested on: NCI-H2228
Procedure, shortened: as §1

NCI-H2405 = tested on: NCI-H2405
Procedure, shortened: as §1

SK-MES-1 = tested on: SK-MES-1
Procedure, shortened: as §1

CAL-12T = tested on: CAL-12T
Procedure, shortened: as §1

SW 1573 = tested on: SW 1573
Procedure, shortened: as §1

PC-14 = tested on: PC-14
Procedure, shortened: as §1

HCC-15 = tested on: HCC-15
Procedure, shortened: as §1

NCI-H1651 = tested on: NCI-H1651
Procedure, shortened: as §1

NCI-H1437 = tested on: NCI-H1437
Procedure, shortened: as §1

NCI-H322M = tested on: NCI-H322M
Procedure, shortened: as §1

COc1cc(N2CCC(C(N)=O)CC2)ccc1Nc1nc(N)c(Cl)c(Nc2ccccc2S(=O)(=O)C(C)C)n1 [HG-5-88-01] + Cc1cc(Nc2cc(N3CCN(C)CC3)nc(Sc3ccc(NC(=O)C4CC4)cc3)n2)n[nH]1 [Tozasertib] (partner 0.1 µM)
relative viability (NCI-H1734; first compound 0.04 µM): 0.267 | relative viability (NCI-H1734; first compound 0.1265 µM): 0.235 | relative viability (NCI-H1734; first compound 0.4 µM): 0.225 | relative viability (NCI-H1734; first compound 1.265 µM): 0.243 | relative viability (NCI-H1734; first compound 4 µM): 0.27 | relative viability (NCI-H520; first compound 0.04 µM): 0.457 | relative viability (NCI-H520; first compound 0.1265 µM): 0.433 | relative viability (NCI-H520; first compound 0.4 µM): 0.435 | relative viability (NCI-H520; first compound 1.265 µM): 0.414 | relative viability (NCI-H520; first compound 4 µM): 0.452 | relative viability (PC-3 [JPC-3]; first compound 0.04 µM): 0.954 | relative viability (PC-3 [JPC-3]; first compound 0.1265 µM): 0.825 | relative viability (PC-3 [JPC-3]; first compound 0.4 µM): 0.882 | relative viability (PC-3 [JPC-3]; first compound 1.265 µM): 0.863 | relative viability (PC-3 [JPC-3]; first compound 4 µM): 0.702 | relative viability (HCC-827; first compound 0.04 µM): 0.475 | relative viability (HCC-827; first compound 0.1265 µM): 0.439 | relative viability (HCC-827; first compound 0.4 µM): 0.401 | relative viability (HCC-827; first compound 1.265 µM): 0.346 | relative viability (HCC-827; first compound 4 µM): 0.263 | relative viability (NCI-H661; first compound 0.04 µM): 0.354 | relative viability (NCI-H661; first compound 0.1265 µM): 0.338 | relative viability (NCI-H661; first compound 0.4 µM): 0.333 | relative viability (NCI-H661; first compound 1.265 µM): 0.397 | relative viability (NCI-H661; first compound 4 µM): 0.377 | relative viability (NCI-H1355; first compound 0.04 µM): 0.601 | relative viability (NCI-H1355; first compound 0.1265 µM): 0.545 | relative viability (NCI-H1355; first compound 0.4 µM): 0.493 | relative viability (NCI-H1355; first compound 1.265 µM): 0.454 | relative viability (NCI-H1355; first compound 4 µM): 0.342 | relative viability (NCI-H1650; first compound 0.04 µM): 0.428 | relative viability (NCI-H1650; first compound 0.1265 µM): 0.396 | relative viability (NCI-H1650; first compound 0.4 µM): 0.346 | relative viability (NCI-H1650; first compound 1.265 µM): 0.174 | relative viability (NCI-H1650; first compound 4 µM): 0.227 | relative viability (RERF-LC-KJ; first compound 0.04 µM): 0.58 | relative viability (RERF-LC-KJ; first compound 0.1265 µM): 0.509 | relative viability (RERF-LC-KJ; first compound 0.4 µM): 0.436 | relative viability (RERF-LC-KJ; first compound 1.265 µM): 0.373 | relative viability (RERF-LC-KJ; first compound 4 µM): 0.174 | relative viability (COR-L23; first compound 0.04 µM): 0.202 | relative viability (COR-L23; first compound 0.1265 µM): 0.196 | relative viability (COR-L23; first compound 0.4 µM): 0.168 | relative viability (COR-L23; first compound 1.265 µM): 0.165 | relative viability (COR-L23; first compound 4 µM): 0.109 | relative viability (LK-2; first compound 0.04 µM): 0.171 | relative viability (LK-2; first compound 0.1265 µM): 0.18 | relative viability (LK-2; first compound 0.4 µM): 0.14 | relative viability (LK-2; first compound 1.265 µM): 0.18 | relative viability (LK-2; first compound 4 µM): 0.16 | relative viability (EKVX; first compound 0.04 µM): 0.356 | relative viability (EKVX; first compound 0.1265 µM): 0.396 | relative viability (EKVX; first compound 0.4 µM): 0.374 | relative viability (EKVX; first compound 4 µM): 0.286 | relative viability (H3255; first compound 0.04 µM): 0.71 | relative viability (H3255; first compound 0.1265 µM): 0.791 | relative viability (H3255; first compound 0.4 µM): 0.616 | relative viability (H3255; first compound 4 µM): 0.731 | relative viability (ABC-1; first compound 0.04 µM): 0.15 | relative viability (ABC-1; first compound 0.1265 µM): 0.204 | relative viability (ABC-1; first compound 0.4 µM): 0.172 | relative viability (ABC-1; first compound 1.265 µM): 0.154 | relative viability (ABC-1; first compound 4 µM): 0.179 | relative viability (NCI-H2228; first compound 0.04 µM): 0.259 | relative viability (NCI-H2228; first compound 0.1265 µM): 0.13 | relative viability (NCI-H2228; first compound 0.4 µM): 0.159 | relative viability (NCI-H2228; first compound 1.265 µM): 0.111 | relative viability (NCI-H2228; first compound 4 µM): 0.133 | relative viability (NCI-H2405; first compound 0.04 µM): 0.765 | relative viability (NCI-H2405; first compound 0.1265 µM): 0.704 | relative viability (NCI-H2405; first compound 0.4 µM): 0.659 | relative viability (NCI-H2405; first compound 1.265 µM): 0.395 | relative viability (NCI-H2405; first compound 4 µM): 0.416 | relative viability (SK-MES-1; first compound 0.04 µM): 0.843 | relative viability (SK-MES-1; first compound 0.1265 µM): 0.909 | relative viability (SK-MES-1; first compound 0.4 µM): 0.833 | relative viability (SK-MES-1; first compound 1.265 µM): 0.579 | relative viability (SK-MES-1; first compound 4 µM): 0.158 | relative viability (CAL-12T; first compound 0.04 µM): 0.274 | relative viability (CAL-12T; first compound 0.1265 µM): 0.359 | relative viability (CAL-12T; first compound 0.4 µM): 0.289 | relative viability (CAL-12T; first compound 1.265 µM): 0.199 | relative viability (CAL-12T; first compound 4 µM): 0.243 | relative viability (SW 1573; first compound 0.04 µM): 0.169 | relative viability (SW 1573; first compound 0.1265 µM): 0.128 | relative viability (SW 1573; first compound 0.4 µM): 0.166 | relative viability (SW 1573; first compound 1.265 µM): 0.157 | relative viability (SW 1573; first compound 4 µM): 0.162 | relative viability (PC-14; first compound 0.04 µM): 0.617 | relative viability (PC-14; first compound 0.1265 µM): 0.645 | relative viability (PC-14; first compound 0.4 µM): 0.602 | relative viability (PC-14; first compound 1.265 µM): 0.228 | relative viability (PC-14; first compound 4 µM): 0.257 | relative viability (HCC-15; first compound 0.04 µM): 0.383 | relative viability (HCC-15; first compound 0.1265 µM): 0.368 | relative viability (HCC-15; first compound 0.4 µM): 0.373 | relative viability (HCC-15; first compound 1.265 µM): 0.107 | relative viability (HCC-15; first compound 4 µM): 0.159 | relative viability (NCI-H1651; first compound 0.04 µM): 0.71 | relative viability (NCI-H1651; first compound 0.1265 µM): 0.745 | relative viability (NCI-H1651; first compound 0.4 µM): 0.7 | relative viability (NCI-H1651; first compound 1.265 µM): 0.388 | relative viability (NCI-H1651; first compound 4 µM): 0.455 | relative viability (NCI-H1437; first compound 0.04 µM): 0.409 | relative viability (NCI-H1437; first compound 0.1265 µM): 0.398 | relative viability (NCI-H1437; first compound 0.4 µM): 0.356 | relative viability (NCI-H1437; first compound 1.265 µM): 0.301 | relative viability (NCI-H1437; first compound 4 µM): 0.316 | relative viability (NCI-H322M; first compound 0.04 µM): 0.456 | relative viability (NCI-H322M; first compound 0.1265 µM): 0.443 | relative viability (NCI-H322M; first compound 0.4 µM): 0.387 | relative viability (NCI-H322M; first compound 4 µM): 0.38
